The series is described as follows: pH-dependent spectroscopic properties (pH titration, absorption and fluorescence). It counts as physicochemical. Here is the method: In each step of pH titration, small volumes (2-10 μL) of HCl at appropriate concentrations (0.1, 10^−2, or 10^−3 M) were pipetted directly into the measurement cell, followed by filling up with 2 mL of 1 μM dye-containing solution [either in a mixture of PBS/ethanol 1:1 (v/v) or 0.5% (v/v) DMSO]. The pH was monitored at 298 K using a digital pH meter (827 pH lab) equipped with a Biotrode (Metrohm, Herisau, Switzerland). Calibration of the instrument was performed with standard aqueous solutions of pH 4, 7, and 9 from Metrohm. Absorption and fluorescence measurements were carried out on an Agilent Cary 5000 spectrophotometer and a Horiba Jobin Yvon spectrometer (Nanolog FL3-2iHR), respectively.
We investigated the spectroscopic properties of the fluorescent probe as a function of pH in phosphate-buffered saline (PBS) containing 50% ethanol by UV-vis spectrophotometry and fluorimetry (FIGS. 21A-21F, 22-23).

The mark [1] stands for this setting: pH range of 3-11, C2H5OH/PBS (1:1, v/v).

Take `CN(C)CCNC(=O)CCc1ccc2n1[B-](F)(F)[N+]1=C(c3ccc[nH]3)C=CC1=C2` [LysoTracker™ Red, reference compound]: under setting [1], the “absorbance as a function of pH” value is listed as “near-constant” and the “fluorescence as a function of pH” value is given as “always-on”.
Turning to `CCOC(=O)C(=CC1=[N+]2C(=C(c3ccncc3)c3ccc(C=C(C(=O)OCC)C(=O)OCC)n3[B-]2(F)F)C=C1)C(=O)OCC` [BODIPY], under “PBS containing 50% ethanol”, the “onset of the fluorescence peak at 618 nm (pH)” value is given as “about 7.4”. Moreover, the red emission peak (PBS containing 50% ethanol) is 618 nm. Besides, the “longest wavelength absorption band” value (acidic conditions (pH of about 4), PBS containing 50% ethanol) came to 602 nm. Moreover, the “increase in emission at 618 nm” value (pH drops from 7.4 to 5.5) was “about 15 fold”, the “increase in emission at 618 nm” value (pH drops from 7.4 to 6.5) is reported as 8 fold and the “increase in emission at 618 nm” value (pH drops from 7.4 to 7.0) is “about 3 fold”. In addition, the “pKa (corrected pKa)” value (reappearance of the absorption bands at 602 nm on reacidification with HCl, PBS containing 50% ethanol) was 5.28±0.05.
